Test results as given in patent US9670194B2 (Calitor Sciences, LLC, priority 2013, dated 2017).

What was measured:
[1] = Pharmacokinetics after intravenous and oral administration in rats; type: in vivo, rat; settings: for bioavailability / AUC(0-t) / half-life / Vd: rat, plasma; for bioavailability: iv dose 1 mg/kg, oral dose generally 5 or 10 mg/kg; for Vd: read-out: Vss
[2] = Compound stability in human liver microsomes; type: in vitro ADME; settings: for half-life at 5 μM: human liver microsomes 0.5 mg protein/mL, compound 5 μM, NADPH 1.0 mM, 37° C.; for CLint scaled at 5 μM: human liver microsomes, in vivo CLint extrapolated
PI3K (p110δ/p85α) (h) = PI3K (p110δ/p85α) (h) (Homo sapiens (Human), UniProt O00329); assay: PI3K (p110δ/p85α) (h) non-radioactive HTRF kinase assay; type: biochemical
[3] = Compound stability in rat liver microsomes; type: in vitro ADME; settings: pH 7.4; for half-life at 5 μM: rat liver microsomes 0.5 mg protein/mL, compound 5 μM, NADPH 1.0 mM, 37° C.; for CLint scaled at 5 μM: rat liver microsomes, in vivo CLint extrapolated

Sequence of PI3K (p110δ/p85α) (h) (O00329 whole entry): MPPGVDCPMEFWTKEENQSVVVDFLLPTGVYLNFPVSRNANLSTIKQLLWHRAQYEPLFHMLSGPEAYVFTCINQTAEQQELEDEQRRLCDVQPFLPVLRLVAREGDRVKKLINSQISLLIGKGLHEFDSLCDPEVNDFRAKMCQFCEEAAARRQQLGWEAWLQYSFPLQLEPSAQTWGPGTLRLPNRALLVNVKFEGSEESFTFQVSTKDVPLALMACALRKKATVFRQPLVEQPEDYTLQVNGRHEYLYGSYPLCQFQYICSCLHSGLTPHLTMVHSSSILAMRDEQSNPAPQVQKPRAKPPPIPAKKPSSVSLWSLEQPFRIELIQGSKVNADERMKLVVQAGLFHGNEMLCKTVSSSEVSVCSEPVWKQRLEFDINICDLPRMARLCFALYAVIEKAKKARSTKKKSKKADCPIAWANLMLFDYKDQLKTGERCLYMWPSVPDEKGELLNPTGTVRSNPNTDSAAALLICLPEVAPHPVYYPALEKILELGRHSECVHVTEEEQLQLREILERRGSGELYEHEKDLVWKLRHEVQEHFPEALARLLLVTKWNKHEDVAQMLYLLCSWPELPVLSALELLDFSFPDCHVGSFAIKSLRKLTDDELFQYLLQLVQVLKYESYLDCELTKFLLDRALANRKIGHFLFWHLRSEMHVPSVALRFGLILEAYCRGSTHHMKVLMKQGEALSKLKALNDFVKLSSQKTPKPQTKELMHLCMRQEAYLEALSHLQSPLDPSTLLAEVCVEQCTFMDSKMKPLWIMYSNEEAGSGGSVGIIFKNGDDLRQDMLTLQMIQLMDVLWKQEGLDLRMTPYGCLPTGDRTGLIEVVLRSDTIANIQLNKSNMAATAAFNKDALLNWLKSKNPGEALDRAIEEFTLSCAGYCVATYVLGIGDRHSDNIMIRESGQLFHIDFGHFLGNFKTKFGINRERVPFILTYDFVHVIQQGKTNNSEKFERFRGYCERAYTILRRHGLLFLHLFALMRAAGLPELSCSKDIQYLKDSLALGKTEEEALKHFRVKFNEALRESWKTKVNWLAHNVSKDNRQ
Sequence of PI3K (p110δ/p85α) (h) (P27986 whole entry partner): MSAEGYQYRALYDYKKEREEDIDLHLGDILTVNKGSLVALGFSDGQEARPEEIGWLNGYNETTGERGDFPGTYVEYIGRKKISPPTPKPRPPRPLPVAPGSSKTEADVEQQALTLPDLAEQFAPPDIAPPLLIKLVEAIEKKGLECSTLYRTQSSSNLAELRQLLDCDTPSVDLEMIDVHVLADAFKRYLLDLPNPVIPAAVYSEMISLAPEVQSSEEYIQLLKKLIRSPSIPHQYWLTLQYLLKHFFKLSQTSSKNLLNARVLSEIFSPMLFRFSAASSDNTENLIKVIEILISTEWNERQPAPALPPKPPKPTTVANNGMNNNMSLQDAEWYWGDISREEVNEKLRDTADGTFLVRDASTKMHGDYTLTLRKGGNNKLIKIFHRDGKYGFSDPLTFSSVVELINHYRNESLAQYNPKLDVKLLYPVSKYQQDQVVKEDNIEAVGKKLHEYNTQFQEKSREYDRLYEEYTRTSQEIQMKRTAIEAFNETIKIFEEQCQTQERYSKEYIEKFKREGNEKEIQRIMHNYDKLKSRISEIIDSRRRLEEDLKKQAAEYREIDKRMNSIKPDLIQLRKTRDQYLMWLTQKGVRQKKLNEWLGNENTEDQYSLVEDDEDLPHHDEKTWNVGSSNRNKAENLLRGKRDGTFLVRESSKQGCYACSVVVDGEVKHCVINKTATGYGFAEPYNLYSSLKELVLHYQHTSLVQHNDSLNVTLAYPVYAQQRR

clearance (CL) ([1]; iv dosing, dose 1 mg/kg) [mL/min/kg]	bioavailability [1] [%]	AUC(0-t) ([1]; iv dosing, dose 1 mg/kg) [ng·h/mL]	half-life ([1]; iv dosing, dose 1 mg/kg) [min]	Vd ([1]; iv dosing, dose 1 mg/kg) [L/kg]	half-life at 5 μM [2] [min]	CLint scaled at 5 μM [2] [mL/min/kg]	IC50 (PI3K (p110δ/p85α) (h)) [nM]	half-life at 5 μM [3] [min]	CLint scaled at 5 μM [3] [mL/min/kg]	CL/F ([1]; iv dosing, dose 1 mg/kg) [mL/min/kg]	Compound
77.3	79	215	63	6.35	9.96	249	49	9.27	268	–	CC[C@H](Nc1ncnc(N)c1-c1nnc(C)o1)c1nc2cccc(C)c2c(=O)n1C1CC1 [Ex. 20, (S)-2-(1-((6-amino-5-(5-methyl-1,3,4-oxadiazol-2-yl)pyrimidin-4-yl)amino)propyl)-3-cyclopropyl-5-methylquinazolin-4(3H)-one]
61.7	49.8	263	111	6.11	14.9	167	13	16.3	152	–	CC[C@H](Nc1ncnc(N)c1-c1nc(C)no1)c1nc2cccc(C)c2c(=O)n1-c1ccccc1C [Ex. 27, (S)-2-(1-((6-amino-5-(3-methyl-1,2,4-oxadiazol-5-yl)pyrimidin-4-yl)amino)-propyl)-5-methyl-3-(o-tolyl)quinazolin-4(3H)-one]
65.5	5.59	241	432	14.3	11.9	146	67	8.68	286	–	Cc1nc(-c2c(N)ncnc2N[C@@H](C)c2nc3cccc(Cl)c3c(=O)n2C2CC2)no1 [Ex. 33, (S)-2-(1-((6-amino-5-(5-methyl-1,2,4-oxadiazol-3-yl)pyrimidin-4-yl)amino)-ethyl)-5-chloro-3-cyclopropylquinazolin-4(3H)-one]
37	45.8	443	128	2.5	74.5	33.4	2290	66.3	37.4	–	CC[C@H](Nc1ncnc(N)c1-c1ncn(C)n1)c1nc2cccc(F)c2c(=O)n1C1CC1 [Ex. 26, (S)-2-(1-((6-amino-5-(1-methyl-1H-1,2,4-triazol-3-yl)pyrimidin-4-yl)amino)propyl)-3-cyclopropyl-5-fluoroquinazolin-4(3H)-one]
46.7	23.1	362	45.6	2.18	–	–	20	–	–	–	CC[C@H](Nc1ncnc(N)c1-c1ccon1)c1nc2cccc(Cl)c2c(=O)n1C1CC1 [Ex. 14, (S)-2-(1-((6-amino-5-(isoxazol-3-yl)pyrimidin-4-yl)amino)propyl)-5-chloro-3-cyclopropylquinazolin-4(3H)-one]
55.8	57.5	292	96.6	6.24	25.4	97.7	19	25	99.3	–	CC[C@H](Nc1ncnc(N)c1-c1nc(C)no1)c1nc2cccc(C)c2c(=O)n1C1CC1 [Ex. 21, (S)-2-(1-((6-amino-5-(3-methyl-1,2,4-oxadiazol-5-yl)pyrimidin-4-yl)amino)-propyl)-3-cyclopropyl-5-methylquinazolin-4(3H)-one]
97.5	–	169	60	7.07	6.07	286	44	3.29	755	–	CCc1nc(-c2c(N)ncnc2N[C@@H](C)c2nc3cccc(Cl)c3c(=O)n2C2CC2)no1 [Ex. 61, (S)-2-(1-((6-amino-5-(5-ethyl-1,2,4-oxadiazol-3-yl)pyrimidin-4-yl)amino)ethyl)-5-chloro-3-cyclopropylquinazolin-4(3H)-one]
74.7	60.9	217	104	8.12	20	87	9	20.4	122	–	CCc1noc(-c2c(N)ncnc2N[C@@H](CC)c2nc3cccc(Cl)c3c(=O)n2C2CC2)n1 [Ex. 56, (S)-2-(1-((6-amino-5-(3-ethyl-1,2,4-oxadiazol-5-yl)pyrimidin-4-yl)amino)-propyl)-5-chloro-3-cyclopropylquinazolin-4(3H)-one]
83	12.1	199	59.4	5.84	18.2	95.2	6	10.4	239	–	CC(C)c1noc(-c2c(N)ncnc2N[C@@H](C)c2nc3cccc(Cl)c3c(=O)n2C2CC2)n1 [Ex. 57, (S)-2-(1-((6-amino-5-(3-isopropyl-1,2,4-oxadiazol-5-yl)pyrimidin-4-yl)amino)-ethyl)-5-chloro-3-cyclopropylquinazolin-4(3H)-one]
36.8	90	452	91.2	3.41	7.12	244	–	7.15	347	–	CC[C@H](Nc1ncnc(N)c1-c1nnn(C)n1)c1nc2cccc(F)c2c(=O)n1-c1ccccc1 [Ex. 43, (S)-2-(1-((6-amino-5-(2-methyl-2H-tetrazol-5-yl)pyrimidin-4-yl)amino)-propyl)-5-fluoro-3-phenylquinazolin-4(3H)-one]
74.2	36.4	223	69.6	7.41	12.6	138	–	4.84	513	–	CC[C@H](Nc1ncnc(N)c1-c1noc(C)n1)c1nc2cccc(C)c2c(=O)n1-c1ccccc1C [Ex. 15, (S)-2-(1-((6-amino-5-(5-methyl-1,2,4-oxadiazol-3-yl)pyrimidin-4-yl)amino)-propyl)-5-methyl-3-(o-tolyl)quinazolin-4(3H)-one]
61.2	7.67	265	265	8.92	8.69	286	–	5.12	485	–	CC[C@H](Nc1ncnc(N)c1-c1ncc(C)o1)c1nc2cccc(C)c2c(=O)n1-c1ccccc1C [Ex. 28, (S)-2-(1-((6-amino-5-(5-methyloxazol-2-yl)pyrimidin-4-yl)amino)propyl)-5-methyl-3-(o-tolyl)quinazolin-4(3H)-one]
54.2	60.6	307	53.4	2.94	16.5	105	–	9.24	269	–	CC[C@H](Nc1ncnc(N)c1-c1ncn(C)n1)c1nc2cccc(C)c2c(=O)n1C1CC1 [Ex. 18, (S)-2-(1-((6-amino-5-(1-methyl-1H-1,2,4-triazol-3-yl)pyrimidin-4-yl)amino)propyl)-3-cyclopropyl-5-methylquinazolin-4(3H)-one]
68.7	18.3	249	45.6	4.3	22.9	108	–	19.7	126	–	CC[C@H](Nc1ncnc(N)c1-c1noc(C)n1)c1nc2cccc(F)c2c(=O)n1C1CC1 [Ex. 16, (S)-2-(1-((6-amino-5-(5-methyl-1,2,4-oxadiazol-3-yl)pyrimidin-4-yl)amino)-propyl)-3-cyclopropyl-5-fluoroquinazolin-4(3H)-one]
85.3	4.37	196	39.6	4.1	43.8	39.7	–	2.43	1020	–	CC[C@@H](Nc1ncnc(N)c1-c1ccon1)c1nc2cccc(Cl)c2c(=O)n1C1CC1 [Ex. 49, (R)-2-(1-((6-amino-5-(isoxazol-3-yl)pyrimidin-4-yl)amino)propyl)-5-chloro-3-cyclopropylquinazolin-4(3H)-one]
70.5	22.4	238	51.6	3.84	17.8	140	–	8.46	294	–	CC[C@H](Nc1ncnc(N)c1-c1ncn(C)n1)c1nc2cccc(C)c2c(=O)n1-c1ccccc1C [Ex. 30, (S)-2-(1-((6-amino-5-(1-methyl-1H-1,2,4-triazol-3-yl)pyrimidin-4-yl)amino)-propyl)-5-methyl-3-(o-tolyl)quinazolin-4(3H)-one]
–	8.88	143	63	7.21	11	227	–	2.69	923	118	CC[C@H](Nc1ncnc(N)c1-c1noc(C)n1)c1nc2ccccc2c(=O)n1-c1ccccc1F
